Measured values reported in patent publication US20180353461A1, “USE OF CANNABINOIDS AS CERAMIDE-GENERATING ANTICANCER AGENTS IN TUMORS OF THE HEMATOPOIETIC AND LYMPHOID TISSUES” (priority 2014, published 2018).

Experiments:
Assay type in all cases: cell-based, human
HL60 cells = test: Mitochondrial membrane potential in HL60 cells (TMRE, flow cytometry)
Protocol: Mitochondrial membrane potential and superoxide detection Cells (10e6 cells per assay) were treated with a concentration of WIN-55 for 15, 30, 45 and 60 min at 37° C. Fluorochromes 10 μM TMRM [(tetramethylrhodamine-ethyl-ester-perchlorate), Santa Cruz Biotechnology Inc.] to detect membrane potential, or 5 μM MitoSOX [Molecular Probes (Invitrogen)] to detect mitochondrial superoxide, were added for the last 15 min of treatment. CCCP (uncoupler of oxidative phosphorylation) or H2O2 (oxidant agent) was used as a positive control of the techniques respectively (Labbe et al., 2008). The fluorescence detection of TMRM was measured for flow citometry. Fluorescent intensity was quantified and analyzed using Infinicyt™ Software (Cytognos, Salamanca, Spain).
To delve into the processes that participate in cannabinoid-induced apoptosis, we evaluated the potential of mitochondrial membrane potential in HL60 cells after treatment with WIN-55, at indicated times, using TMRE assay by flow citometry. We observed that cannabinoids induced a drop of Δψm in HL60 cells (FIG. 20a). The loss of potential started as early as 15 min after exposure to the cannabinoid, and continued decreasing over time. Also the ROS increase by MitoSOX assay was observed, specially in HL60 cells after exposure to WIN-55 (FIG. 20b).

U266 cells [1] = test: Western blot time course of apoptotic proteins in U266 cells
Protocol: Protein analyses were performed by Western blot in several sets of assays: expression pattern of CBs-receptors in MM cell lines and primary cells, and time course after treatment with cannabinoids in MM cell lines. Time-course assays were performed at 0, 2, 6, 18 and 24 hours. Anyway, obtaining cell lysates was conducted according to a protocol adapted to phosphorylation-dependent signaling, described by Gilbert et al. (2002). Briefly, 10e7 cells per condition were harvested at indicated times, washed with iced-cold PBS and lysate in isotonic lysis buffer 30 min keeping on ice. Isotonic lysis buffer contained 2% ASB-14 (CalbioChem, San Diego, Calif., USA),1% Nonidet P-40 (Ipegal®), 137 mM NaCl, 20mM Tris-HCl pH 7.5 at 4° C. (all from Sigma-Aldrich), 2 mM Na3VO4, 20 mM NaF (New England BioLabs Inc., Ipswich, Mass., USA), 2 mM DTT (AppliChem, Darmstadt, Germany), protease inhibitor cocktail (Roche Diagnostics GmbH, Mannheim, Germany), and 10 ul Nuclease Mix (Amersham GE Healthcare, Uppsala, Sweden). After lysis, samples were centrifuged at 13,000×g for 5 min at 4° C., and supernatants collected. Protein concentration in samples was determined by Pierce® Microplate BCA Protein Assay kit-Reducing Agent Compatible (Thermo Fisher Scientific). Before loading the samples in the gel, they were diluted in loading sample buffer (0.125 M Tris-HCl pH 6.8, 4% SDS, 20% glycerol, 0.02% Bromophenol Blue, 200 mM DTT) and the mixture was heated at 70° C. for 5 min in a thermoblock (LabNet International, N.J., USA).
(§1) Samples (15-25 ug/lane) were subjected to SDS/PAGE in pre-cast polyacrylamide gels AnykD (Bio-Rad Laboratories, Hercules, CA, USA) under reducing and denaturing conditions. Electrophoretic run was performed at a constant current of 15 mA per gel in a Mini-Protean® Tetra Cell (Bio-Rad Laboratories). Once proteins were separated by electrophoresis, were transferred onto PVDF membranes using Trans-Blot® Turbo™ System (Bio-Rad Laboratories). Electrotransference was conducted at constant amperage of 1.2 mA and at up to 25 V of voltage. The blotted membranes were then blocked with 2% bovine serum albumin [(BSA), Santa Cruz Biotechnology] in Tween-Tris buffer saline (TTBS) for 30 min with gentle agitation, and incubated overnight at 4° C. with corresponding primary antibody in TTBS. After twice washing with TTBS, membranes were incubated for 1-2 h at room temperature with suitable conjugated-HRP secondary antibody, and subjected to chemiluminescence detection using Western Blotting Luminol Reagent (Santa Cruz Biotechnology). […]
The antiproliferative effect of cannabinoids is mediated by apoptotic mechanisms. […] Next, we evaluated Casp-3 activation using an antibody that recognizes the active forms of Casp-3, this is, the 17 kDa- and 12 kDa-cleaved forms. […]

U266 cells [2] = test: Western blot of ER-stress regulator proteins in U266 cells; conditions: U266, WIN-55 50 uM
Protocol: as §1, with “Biotechnology). Loading controls were carried out with an anti-beta-actin and anti-beta-tubulin antibodies (Sigma-Aldrich).” for “Biotechnology).”
Cannabinoids attenuate the response to ER-stress in myelomatous cells. […] To test the effect of cannabinoids on ER-stress we analyzed the expression profile of ER-stress related proteins in myelomatous cells.

## CS(=O)(=O)O.Cc1c(C(=O)c2cccc3ccccc23)c2cccc3c2n1[C@H](CN1CCOCC1)CO3 [WIN-55, (R)-(+)-[2,3-dihydro-5-methyl-3-(4-morpholinylmethyl)-pyrrolo-[1,2,3]-1,4-benzoxazin-6-yl]-1-naphthalenylmethanone mesylate]
HL60 cells; HL60
  time after exposure at which the loss of potential started: 15 min
HL60 cells; HL60, TMRE, flow cytometry
  mitochondrial membrane potential (Δψm): drop of Δψm
U266 cells [1]; U266
  time after exposure at which the 89 kDa PARP fragment became detectable: 2 h
U266 cells [1]; U266, time course
  expression of the two active-cleaved forms of Casp-3 (17 kDa and 12 kDa): increased over time
U266 cells [1]; U266, time course 0-24 h
  89 kDa fragment of PARP: increase
  full-length PARP: decrease
U266 cells [2]
  response to ER-stress: expression of CHOP, ATF-4, p-IRE1: attenuates the response to ER-stress
